This note sets out measurements from US12344603B2 (Genentech, Inc., priority 2020, dated 2025).

IRE1α, sequence (O75460 547-977 D688N): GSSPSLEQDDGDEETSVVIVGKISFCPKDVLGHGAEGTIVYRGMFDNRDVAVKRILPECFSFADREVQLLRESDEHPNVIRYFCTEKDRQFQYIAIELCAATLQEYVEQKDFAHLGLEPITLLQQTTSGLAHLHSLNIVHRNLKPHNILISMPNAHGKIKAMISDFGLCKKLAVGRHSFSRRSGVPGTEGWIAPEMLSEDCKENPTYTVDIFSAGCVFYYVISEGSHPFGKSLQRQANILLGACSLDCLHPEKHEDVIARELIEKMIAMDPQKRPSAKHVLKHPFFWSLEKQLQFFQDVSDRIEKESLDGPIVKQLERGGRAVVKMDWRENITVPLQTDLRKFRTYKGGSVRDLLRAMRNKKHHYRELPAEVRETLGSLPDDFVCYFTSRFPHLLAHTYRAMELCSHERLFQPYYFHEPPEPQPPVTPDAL

This experiment concerns the target IRE1α (Homo sapiens (Human), UniProt O75460, D688N). As to the kind of experiment: IRE1α TR-FRET competition binding assay (IRE1α HTRF). The note with it: TR-FRET competition binding to kinase domain of IRE1α. An outline of the steps:
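Kinase domain (0.25 nM) pre-bound to 2 nM Eu anti-His antibody for 1 h at 4° C in HEPES pH 7.5/MgCl2/Brij 35/DTT/gamma globulin buffer, then mixed with compounds and 2 nM Alexa 647 ATP-competitive probe. 1 h at room temperature; probe displacement read as TR-FRET (Ex 347 nm, Em 665/615 nm).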
In general terms: In TR-FRET formats the signal depends on donor and acceptor labels being close together.
In turn, `CC(C)n1c(=O)c(-c2ccc(NS(=O)(=O)CCC3CC3(F)F)c(F)c2)nc2cnc(N[C@H]3CC[C@H](N(C)C)CC3)nc21` (stereo partly drawn) [Example 259, 2-(2,2-Difluorocyclopropyl)-N-[4-[2-[[4-(dimethylamino)cyclohexyl]amino]-8-isopropyl-7-oxo-pteridin-6-yl]-2-fluoro-phenyl]ethanesulfonamide] returned an IC50 of 0.2 nM.
As for `CC(C)n1c(=O)c(-c2ccc(NS(=O)(=O)CC3CC4(CCC4)C3)c(F)c2)nc2cnc(N[C@H]3CC[C@H](N(C)C)CC3)nc21` [Example 260, N-[4-[2-[[4-(Dimethylamino)cyclohexyl]amino]-8-isopropyl-7-oxo-pteridin-6-yl]-2-fluoro-phenyl]-1-spiro[3.3]heptan-2-yl-methanesulfonamide], the figure is 0.2 nM; as for `CC(C)n1c(=O)c(-c2ccc(NS(=O)(=O)CC3(C(F)(F)F)CCC3)c(F)c2)nc2cnc(N[C@H]3CC[C@H](N(C)C)CC3)nc21` [Example 261, N-[4-[2-[[4-(Dimethylamino)cyclohexyl]amino]-8-isopropyl-7-oxo-pteridin-6-yl]-2-fluoro-phenyl]-1-[1-(trifluoromethyl)cyclobutyl]methanesulfonamide], 0.2 nM.
For the compound `CC(C)n1c(=O)c(-c2ccc(NS(=O)(=O)CC3CC4(C3)CC4(F)F)c(F)c2)nc2cnc(N[C@H]3CC[C@H](N(C)C)CC3)nc21` (stereo partly drawn) [Example 262, 1-(2,2-Difluorospiro[2.3]hexan-5-yl)-N-[4-[2-[[4-(dimethylamino)cyclohexyl]amino]-8-isopropyl-7-oxo-pteridin-6-yl]-2-fluoro-phenyl]methanesulfonamide], the IC50 stood at 0.3 nM.
`CC(C)n1c(=O)c(-c2ccc(NS(=O)(=O)CC3CC4C(C3)C4(F)F)c(F)c2)nc2cnc(N[C@H]3CC[C@H](N(C)C)CC3)nc21` (stereo partly drawn) [Example 265, 1-(6,6-Difluoro-3-bicyclo[3.1.0]hexanyl)-N-[4-[2-[[4-(dimethylamino)cyclohexyl]amino]-8-isopropyl-7-oxo-pteridin-6-yl]-2-fluorophenyl]methanesulfonamide] returned a half-maximal inhibitory concentration (IC50) of 0.2 nM.
Turning to `CC(C)n1c(=O)c(-c2ccc(NS(=O)(=O)CC3(C(F)F)CCCC3)c(F)c2)nc2cnc(N[C@H]3CC[C@H](N(C)C)CC3)nc21` [Example 266, 1-[1-(Difluoromethyl)cyclopentyl]-N-[4-[2-[[4-(dimethylamino)cyclohexyl]amino]-8-isopropyl-7-oxo-pteridin-6-yl]-2-fluoro-phenyl]methanesulfonamide], the IC50 was 0.2 nM.
`CC(C)n1c(=O)c(-c2ccc(NS(=O)(=O)CC3CCCC3)c(F)c2)nc2cnc(N[C@H]3CC[C@H](N(C)C)CC3)nc21` [Example 267, 1-Cyclopentyl-N-[4-[2-[[4-(dimethylamino)cyclohexyl]amino]-8-isopropyl-7-oxo-pteridin-6-yl]-2-fluoro-phenyl]methanesulfonamide] came in with an IC50 of 0.1 nM.
`CC(C)n1c(=O)c(-c2ccc(NS(=O)(=O)CC3Cc4ccccc4C3)c(F)c2)nc2cnc(N[C@H]3CC[C@H](N(C)C)CC3)nc21` [Example 268, N-[4-[2-[[4-(Dimethylamino)cyclohexyl]amino]-8-isopropyl-7-oxo-pteridin-6-yl]-2-fluoro-phenyl]-1-indan-2-yl-methanesulfonamide]: the IC50 turned out to be 0.1 nM.
Regarding `CC(C)n1c(=O)c(-c2ccc(NS(=O)(=O)CC3CCCCC3)c(F)c2)nc2cnc(N[C@H]3CC[C@H](N(C)C)CC3)nc21` [Example 269, 1-Cyclohexyl-N-[4-[2-[[4-(dimethylamino)cyclohexyl]amino]-8-isopropyl-7-oxo-pteridin-6-yl]-2-fluoro-phenyl]methanesulfonamide], the IC50 was 0.2 nM.
`CC(C)n1c(=O)c(-c2ccc(NS(=O)(=O)CC34CCC(CC3)C4)c(F)c2)nc2cnc(N[C@H]3CC[C@H](N(C)C)CC3)nc21` [Example 270, N-[4-[2-[[4-(Dimethylamino)cyclohexyl]amino]-8-isopropyl-7-oxo-pteridin-6-yl]-2-fluoro-phenyl]-1-norbornan-1-yl-methanesulfonamide] gave a half-maximal inhibitory concentration (IC50) of 0.3 nM.
In the case of `CC(C)n1c(=O)c(-c2ccc(NS(=O)(=O)CC3CCC(F)(F)CC3)c(F)c2)nc2cnc(N[C@H]3CC[C@H](N(C)C)CC3)nc21` [Example 271, 1-(4,4-Difluorocyclohexyl)-N-[4-[2-[[4-(dimethylamino)cyclohexyl]amino]-8-isopropyl-7-oxo-pteridin-6-yl]-2-fluoro-phenyl]methanesulfonamide], the IC50 was determined as 0.2 nM.
`CC(C)n1c(=O)c(-c2ccc(NS(=O)(=O)[C@@H]3C[C@H]3c3ccccc3)c(F)c2)nc2cnc(N[C@H]3CC[C@H](N(C)C)CC3)nc21` [Example 274, (1R,2S)—N-(4-(2-(((1r,4r)-4-(Dimethylamino)cyclohexyl)amino)-8-isopropyl-7-oxo-7,8-dihydropteridin-6-yl)-2-fluorophenyl)-2-phenylcyclopropane-1-sulfonamide] registered an IC50 of 0.2 nM.
Turning to `CC(C)n1c(=O)c(-c2ccc(NS(=O)(=O)C3C4CCCCC43)c(F)c2)nc2cnc(N[C@H]3CC[C@H](N(C)C)CC3)nc21` (stereo partly drawn) [Example 275, N-[4-[2-[[4-(Dimethylamino)cyclohexyl]amino]-8-isopropyl-7-oxo-pteridin-6-yl]-2-fluoro-phenyl]norcarane-7-sulfonamide], the IC50 is 0.4 nM.
The compound `CC(C)n1c(=O)c(-c2ccc(NS(=O)(=O)C3CCC3)c(F)c2)nc2cnc(N[C@H]3CC[C@H](N(C)C)CC3)nc21` [Example 276, N-[4-[2-[[4-(Dimethylamino)cyclohexyl]amino]-8-isopropyl-7-oxo-pteridin-6-yl]-2-fluoro-phenyl]cyclobutanesulfonamide] returned an IC50 of 0.9 nM.
For `CC(C)n1c(=O)c(-c2ccc(NS(=O)(=O)C3CC4(CCC4)C3)c(F)c2)nc2cnc(N[C@H]3CC[C@H](N(C)C)CC3)nc21` [Example 277, N-[4-[2-[[4-(Dimethylamino)cyclohexyl]amino]-8-isopropyl-7-oxo-pteridin-6-yl]-2-fluoro-phenyl]spiro[3.3]heptane-2-sulfonamide], the half-inhibitory concentration (IC50) stood at 0.2 nM.
For `CC(C)n1c(=O)c(-c2ccc(NS(=O)(=O)CC3CCC3)c(F)c2)nc2cnc(N[C@H]3CC[C@H](N(C)C)CC3)nc21` [Example 278, 1-Cyclobutyl-N-[4-[2-[[4-(dimethylamino)cyclohexyl]amino]-8-isopropyl-7-oxo-pteridin-6-yl]-2-fluoro-phenyl]methanesulfonamide], the IC50 is 0.2 nM.
With `CC(C)n1c(=O)c(-c2ccc(NS(=O)(=O)CC3CC(F)(F)C3)c(F)c2)nc2cnc(N[C@H]3CC[C@H](N(C)C)CC3)nc21` [Example 279, 1-(3,3-Difluorocyclobutyl)-N-[4-[2-[[4-(dimethylamino)cyclohexyl]amino]-8-isopropyl-7-oxo-pteridin-6-yl]-2-fluoro-phenyl]methanesulfonamide], the IC50 is 0.3 nM.
To `CC(C)n1c(=O)c(-c2ccc(NS(=O)(=O)C3CCC(F)(F)CC3)c(F)c2)nc2cnc(N[C@H]3CC[C@H](N(C)C)CC3)nc21` [Example 280, N-[4-[2-[[4-(Dimethylamino)cyclohexyl]amino]-8-isopropyl-7-oxo-pteridin-6-yl]-2-fluoro-phenyl]-4,4-difluoro-cyclohexanesulfonamide] belongs 0.2 nM.

What is called IC50 is the concentration that inhibits the measured activity by half.
